The first data set is described as follows: Thiol Vapor Pressure Suppression (TVPS) index measurement, zNose fast GC headspace. The conditions noted are these: 5 μl compound, 100 μl 1% v/v butanethiol in ethanol, 37° C. for 4 hours. From the text: Thiol Vapor Pressure Suppression (TVPS) index is a measure of the reduction in butanethiol concentration in the headspace by a compound, as measured using a fast GC instrument, the zNose 7100 (Electronic Sensor Technologies, Newbury Park, Calif.).
Thiol Vapor Pressure Suppression (TVPS) index is a measure of the reduction in butanethiol concentration in the headspace by a compound, as measured using a fast GC instrument, the zNose 7100 (Electronic Sensor Technologies, Newbury Park, Calif.) based on an Surface Acoustic Wave (SAW) Quartz microbalance detector, or equivalent.
Before any measurements the instrument is calibrated according to manufacturer's instructions under the same experimental settings. The instrument has a DB-5 column (also available from Electronic Sensor Technologies, Newbury Park, Calif.) 1 m in length, 0.25 μm phase thickness, and 0.25 mm in diameter.
For analysis, the zNose is programmed with the Sensor Temperature, Inlet Temperature, Valve Temperature, and Initial Column Temperature all set to 40° C. The oven is temperature gradient is programmed at a rate of 10° C./s from 40° C. to a final temperature of 200° C.
TVPS of a compound is measured in the following way: 100 μl±1 μl of a 1% v/v butanethiol (99%, purity, available from Sigma-Aldrich, St. Louis, Mo.) solution in ethanol (200 proof) is added into a 1 ml vial (8×40 mm). These vials are borosilcate glass straight walled vial. In another 1 ml vial (8×40 mm), 5 μl±0.2 μl of the compound is added. Both open vials are then placed inside a 20 mL headspace vial (22×75 mm), and the vial is immediately sealed using a screw thread closure with PTFE/Silicone septa. The vial is heated to 37° C. for 4 hours. After 4 hours, the vial is removed from the oven and let to equilibrate at 25° C.±2° C. for 15 minutes. The headspace inside the vial is sampled using the zNose is sampled for 10 s and analyzed following the experimental protocol outlined above. Samples with butanethiol alone, and the volatile active alone, are run using the same protocol to identify the peaks for both materials. An acceptable retention index for butanethiol is 720±30. If the peaks butanethiol peak and the volatile material peak co-elute, one skilled in the art can modify the protocol settings to separate those peaks to achieve a minimum resolution of 1.5. For example one can change the column temperature ramp rate. In between samples, the instrument needs to be cleaned to remove any trace materials. To clean the instrument, the instrument is run without samples as needed until no peaks greater than 100 counts are observed.
The amount of butanethiol in the headspace is measured from the area of the peak on the chromatograph for butanethiol (ABtSH,Rx). To calculate the percentage of butanethiol reduction in the headspace, a control with the butanethiol solution without the volatile material is run in the same manner and the area is measured as well (ABtSH,C). TVPS is then measured as the percentage reduction in butanethiol area calculated using the following formula: […]
Consider `CC(C)=CCCC(C)CCCC(C)C=O` (centres unmarked) [adoxal], for which the “TVPS (percentage reduction in butanethiol headspace peak area)” value is reported as 24.4. The same measure, in the same setting: under `CC1=CC(C)C(C=O)CC1` (centres unmarked) [ligustral] stands 42.5; under `CC(C)c1cccc(C(C)CC=O)c1` (centres unmarked) [Florhydral], 53.3; under `CC(C)=CCCC(C)C=O` (centres unmarked) [melonal], 20.4. Regarding `C=CC(C)CCC=C(C)CCC=O` (centres unmarked) [Floral Super], the “TVPS (percentage reduction in butanethiol headspace peak area)” value is 52.4. Consider `CC(C)=CCC/C(C)=C\C=O` [neral], for which the “TVPS (percentage reduction in butanethiol headspace peak area)” value turned out to be 17.1. The same measure, in the same setting: in the case of `CCCCCCC(C=O)=Cc1ccccc1` [Hexylcinnamic aldehyde] it was 8.0; in that of `CCC/C=C/C=O` [trans-2-hexenal], 27.1; in that of `Cc1ccc(C=O)s1` [5-methyl-2-thiophene-carboxaldehyde], 67.4.

A short description of the next data set: Fragrance (OCOC) release from cyclodextrin complexes on feminine hygiene pad, SPME-GC/MS headspace. The settings on record: 1.00 mL water, headspace at 5, 10, 30 min, FIG. 2. Format: physicochemical. The source says:
The results are shown in the graph of FIG. 2. After dosing with water the headspace was sampled using Solid Phase Micro-Extraction (a suitable fiber assembly is a 2 cm Stableflex 24 Ga, 50/30 μm DVB/CAR/PDMS available from Supelco, Pa. or equivalent) followed by gas chromatography/mass spectrometry (a suitable unit is the 5777A Mass Selective Detector (MSD) also available from Agilent, or equivalent) with a GERSTEL Multipurpose Sampler (Gerstel, Liticumo, Md. or equivalent) to quantify the OCOC release.
The model OCOC used is a neat mixture of benzaldehyde (1.6 g, 15.08 mmols), ligustral (1.6 g, 11.58 mmols), citral (1.6 g, 10.51 mmols), cinnamic aldehyde (1.6 g, 12.11 mmols), and florhydral (1.6 g, 8.41 mmols). All components are available from Sigma Aldrich, or equivalent. The mixture is homogenized before use.
The Standard Pad Substrates are prepared by cutting a 10 cm lateral strip across the whole product centered at the longitudinal center of an Always Ultra normal size pad.
A mixture of the model OCOC for each β-cyclodextrin type was solubilized in water at a one-to-one molar ratio (β-cyclodextrin/OCOC). The amount of water used for the complexation was adjusted for each β-cyclodextrin type according to its individual water solubility to ensure complete dissolution of the β-cyclodextrin complex. Each mixture of β-cyclodextrin and OCOC in water was thoroughly homogenized. […]
In the case of `COC[C@H]1O[C@@H]2O[C@H]3[C@H](O)[C@@H](OC)[C@@H](O[C@H]4[C@H](O)[C@@H](OC)[C@@H](O[C@H]5[C@H](O)[C@@H](OC)[C@@H](O[C@H]6[C@H](O)[C@@H](OC)[C@@H](O[C@H]7[C@H](O)[C@@H](OC)[C@@H](O[C@H]8[C@H](O)[C@@H](OC)[C@@H](O[C@H]1[C@H](O)[C@H]2OC)O[C@@H]8COC)O[C@@H]7COC)O[C@@H]6COC)O[C@@H]5COC)O[C@@H]4COC)O[C@@H]3COC` [2,6-dimethyl-β-cyclodextrin, 2,6-Di-O-methyl-β-cyclodextrin], the “Percent release of fragrance versus conventional β-cyclodextrin complex” value is “much higher percent release of fragrance than does conventional β-cyclodextrin” and the “Release of fragrance versus 2,3,6-trimethyl-β-cyclodextrin complex” value was “much higher release of fragrance than does 2, 3, 6-trimethyl-β-cyclodextrin”.

The values above are taken from patent US10427133B2, “Absorbent article comprising cyclodextrin complexes” (The Procter & Gamble Company, priority 2016, dated 2019).
